Test results: US7056728B2, “Compositions and methods for use thereof in modifying the genomes of microorganisms” (priority 2000, dated 2006)

Key:
[1] = test system: S. pneumoniae A66.1 Xen 10; set-up: species or system Streptococcus pneumoniae; settings: in vivo
Protocol: Thus, the strains HUSTMBIG, A66.1, EF3030 and 140301 were made bioluminescent and tested in both mouse lung and nasopharyngeal models. Briefly, exponential cultures of S. pneumoniae grown at 37° C. in BHI were pelleted and then resuspended in fresh BHI broth. Bacterial concentrations were estimated spectrophotometrically by absorbance at 600 nm and adjusted to approximately […] by dilution BHI. Cell numbers were verified by plating dilutions of inoculum onto BHI agar.
Pneumococci were introduced into the lungs of the mice by either direct intratracheal inoculation, or by intranasal administration. The animals were anesthetized with ketamine (100 mg/ml) and xylazine (20 mg/ml), mixed at a 4:1 ratio v/v just before use. The anesthesia mixture was injected intramuscularly into the right hamstring muscle at a dose of 100 mg ketamine/kg of body weight. After anesthesia was established, the mice were inoculated with approximately 10^6 CFU in a total volume of 20 μl, using a 25 ga. Ball-tipped gavage needle. Mice were held in vertical suspension for 10 minutes after inoculation to facilitate deep penetration of the inoculum. Alternatively, mice were infected intranasally with approximately 10^6 CFU by placing 20 μl of bacterial suspension on the nares and allowing the mice to inhale the inoculum. In the antibiotic studies, mice were treated with amoxicillin at 1 mg/kg or 5 mg/kg, given subcutaneously at t=0, 18, 24, and 42 hours post-infection.
Mice were imaged for a maximum of 5 min at a number of time points post-infection using an IVIS™ CCD camera (Xenogen Corporation, Alameda, Calif.). Total photon emission from selected and defined areas within the images of each mouse was quantified using the LivingImage™ software package (Xenogen Corporation, Alameda, Calif.). The photon signal from the thorax was quantified from the ventral image of each mouse.
Twelve mice were inoculated with approximately 10^6 CFU of S. pneumoniae A66.1 Xen 10. The mice were divided into three groups of four animals and two of these groups were treated with an amoxicillin regime at 1 or 5 mg/kg, the third group of animals remaining untreated as controls.
After the final imaging time point, mice were sacrificed and the infected lung tissue was surgically removed and weighed. Both lungs were homogenized together in 500 μl BHI in a loose Dounce homogenizer. The suspension was serially diluted in BHI and plated in duplicate onto BHI agar. Bacterial burden was estimated from the number of CFU/g of lung tissue. The bacterial load present in the nasal passage of the mice was obtained by washing approximately 0.25 ml of saline through the trachea and collecting the first 0.1 ml of nasal wash as it exited the nares, as described (Lipsitch et al. (2000) Vaccine 18:2895–2901; Wu et al. (1997) Microb. Pathog. 23:127–137).

MRSA strain I6 = test: antibiotic resistance of MRSA strain; assay type: cell-based, S. aureus
[2] = test system: S. pneumoniae pAUL-A Tn4001 luxABCDE km^R; test: growth and colony formation of S. pneumoniae transformants in the presence of kanamycin; assay type: cell-based, Streptococcus pneumoniae; settings: 10^3 CFUs plated on chocolate agar, increasing kanamycin 400 to 1000 μg/ml; approximately 1000 CFUs without kanamycin

Compound: CC1(C)S[C@@H]2[C@H](NC(=O)[C@H](N)c3ccc(O)cc3)C(=O)N2[C@H]1C(=O)O [amoxicillin]
- appearance of treated mice [1]: appeared relatively healthy
- highest number of pneumococci isolated from a treated animal (lung tissue) [1]: 300 CFU/g tissue
- treated animals showing no bacteria present in lung tissue [1]: four of the eight
- animals with a bioluminescent signal ([1]; sc, 1 mg/kg): Three of the four
- animals with a significant bioluminescent signal ([1]; sc, 5 mg/kg): None of the four

Compound: O=C(N[C@H](CO)[C@H](O)c1ccc([N+](=O)[O-])cc1)C(Cl)Cl [chloremphenicol]
- resistance of strain to antibiotics tested (MRSA strain I6): resistant to all the antibiotics tested except for chloremphenicol

Compound: NC[C@H]1O[C@H](O[C@H]2[C@H](O)[C@@H](O[C@H]3O[C@H](CO)[C@@H](O)[C@H](N)[C@H]3O)[C@H](N)C[C@@H]2N)[C@H](O)[C@@H](O)[C@@H]1O [kanamycin]
- number of colonies (average) [2]: 56 to 35
